Reference: patent publication US8598234B2, “Compositions of dibromomalonamide and their use as biocides” (Dow Global Technologies LLC, priority 2009, dated 2013)
Read-outs that look alike come from different tables or passages of the source.

Tested on: mixture of Pseudomonas aeruginosa, Klebsiella pneumoniae, Staphylococcus aureus, and Bacillus subtilis
Assay: Growth inhibition assay (microtiter plate-based synergy assay)
Type: cell-based
Settings: 24 h; for concentration needed to prevent at least 90% of the growth (I90) of the microbial consortium: active used alone
From the text: Details of each assay are provided below.
Growth Inhibition Assay. […] Regardless of the mechanism of action, the impact of a biocide (or combination of biocides) can be measured over time on the basis of an increase in the size of the community.
The assay measures the efficacy of one or more biocides at preventing growth of a consortium of bacteria in a dilute mineral salts medium. The medium contains (in mg/l) the following components: FeCl3.6H2O (1); CaCl2.2H2O (10); MgSO4.7H2O (22.5); (NH4)2SO4 (40); KH2PO4 (10); K2HPO4 (25.5); Yeast Extract (10); and glucose (100). After all components are added to deionized water, the pH of the medium is adjusted to 7.5. Following filter sterilization, aliquots are dispensed in 100 ul quantities to sterile microtiter plate wells. Dilutions of 2,2-dibromomalonamide (“DBMAL”) and/or “Biocide B” are then added to the microtiter plate. After preparing the combinations of actives as illustrated below, each well is inoculated with 100 μl of a cell suspension containing ca. 1×10^6 cells per milliliter of a mixture of Pseudomonas aeruginosa, Klebsiella pneumoniae, Staphylococcus aureus, and Bacillus subtilis. The final total volume of medium in each well is 300 μl. Once prepared as described herein, the concentration of each active ranges from 25 ppm to 0.195 ppm as illustrated in Table 1. The resulting matrix allows testing of eight concentrations of each active and 64 combinations of actives in the ratios (of actives).
Controls (not shown) contain the medium with no biocide added. After preparing the combinations of actives as illustrated above, each well is inoculated with 100 μl of a cell suspension containing ca. 1×10^6 cells per milliliter of a mixture of Pseudomonas aeruginosa, Klebsiella pneumoniae, Staphylococcus aureus, and Bacillus subtilis. The final total volume of medium in each well is 300 μl.
Immediately after the microtiter plates are prepared, the optical density (OD) readings for each well is measured at 580 nm and the plates are then incubated at 37° C. for 24 hr. After the incubation period, the plates are gently agitated before OD580 values are collected. The OD580 values at T0 are subtracted from T24 values to determine the total amount of growth (or lack thereof) that occurs. These values are used to calculate the percent inhibition of growth caused by the presence of each biocide and each of the 64 combinations.
where • CDBMAL: Concentration of DBMAL required to inhibit ˜90% of bacterial growth when used alone • CB: Concentration of biocide (B) required to inhibit ˜90% of bacterial growth when used alone.
MDBMAL: Concentration of DBMAL required to inhibit ˜90% of bacterial growth when used in combination with biocide (B).
MB: Concentration of biocide (B) required to inhibit ˜90% of bacterial growth when used in combination with DBMAL
The SI values are interpreted as follows:
• SI<1: Synergistic combination • SI=1: Additive combination • SI>1: Antagonistic combination
In the Examples below, the amounts of biocides in the solution are measured in mg per liter of solution (mg/l). Since solution densities are approximately 1.00, the mg/l measurement corresponds to weight ppm. Both units may therefore be used interchangeably in the Examples.

[1] = read-out: % Inhibition of growth by SOPP

Compound	inhibition at […] (DBMAL alone 0.19 mg/l, OD580) [%]	inhibition at 0.39 µg/mL (DBMAL alone 0.39 mg/l, OD580) [%]	inhibition at 0.78 µg/mL (DBMAL alone 0.78 mg/l, OD580, read-out: % Inhibition of growth by DBMAL) [%]	inhibition at 1.56 µg/mL (DBMAL alone 1.56 mg/l, OD580, read-out: % Inhibition of growth by DBMAL) [%]	inhibition at 3.13 µg/mL (DBMAL alone 3.13 mg/l, OD580, read-out: % Inhibition of growth by DBMAL) [%]	inhibition at 6.25 µg/mL (DBMAL alone 6.25 mg/l, OD580, read-out: % Inhibition of growth by DBMAL) [%]	inhibition at 12.5 µg/mL (DBMAL alone 12.5 mg/l, OD580, read-out: % Inhibition of growth by DBMAL) [%]	inhibition at 25 µg/mL (DBMAL alone 25.0 mg/l, OD580, read-out: % Inhibition of growth by DBMAL) [%]	concentration needed to prevent at least 90% of the growth (I90) of the microbial consortium [mg/L]	inhibition at 0.78 µg/mL [1] [%]	inhibition at 1.56 µg/mL [1] [%]	inhibition at 3.13 µg/mL [1] [%]	inhibition at 6.25 µg/mL [1] [%]	inhibition at 12.5 µg/mL [1] [%]	inhibition at 25 µg/mL [1] [%]	inhibition at 50 µg/mL [1] [%]
NC(=O)C(Br)(Br)C(N)=O [DBMAL, 2,2-dibromomalonamide]	0	4	7	0	0	49	100	100	12.5							
Oc1ccccc1-c1ccccc1.[Na] [SOPP, sodium ortho-phenylphenol]									500	0	17	0	37	68	98	98
